ChEMBL document CHEMBL5505952, “Targeting SARS-CoV-2 entry processes: The promising potential and future of host-targeted small-molecule inhibitors” (Eur J Med Chem, 2024)

How the values were obtained:
[1] = test system: SARS-CoV-2; type: functional, organism-based; details: Severe acute respiratory syndrome coronavirus 2, Vero C1008
[2] = test system: Respiratory syncytial virus; test: microbe, parasite or virus in culture; details: human respiratory syncytial virus, A2, HEp-2
[3] = target: Spike glycoprotein/Angiotensin-converting enzyme 2 (Severe acute respiratory syndrome coronavirus 2, UniProt P0DTC2+Q9BYF1); test: Inhibition of SARS-CoV-2 spike protein RBD- human ACE2 interaction; type: protein assay
Spike glycoprotein/Angiotensin-converting enzyme 2, sequence (Q9BYF1 18-805 limits assumed, other chains not shown): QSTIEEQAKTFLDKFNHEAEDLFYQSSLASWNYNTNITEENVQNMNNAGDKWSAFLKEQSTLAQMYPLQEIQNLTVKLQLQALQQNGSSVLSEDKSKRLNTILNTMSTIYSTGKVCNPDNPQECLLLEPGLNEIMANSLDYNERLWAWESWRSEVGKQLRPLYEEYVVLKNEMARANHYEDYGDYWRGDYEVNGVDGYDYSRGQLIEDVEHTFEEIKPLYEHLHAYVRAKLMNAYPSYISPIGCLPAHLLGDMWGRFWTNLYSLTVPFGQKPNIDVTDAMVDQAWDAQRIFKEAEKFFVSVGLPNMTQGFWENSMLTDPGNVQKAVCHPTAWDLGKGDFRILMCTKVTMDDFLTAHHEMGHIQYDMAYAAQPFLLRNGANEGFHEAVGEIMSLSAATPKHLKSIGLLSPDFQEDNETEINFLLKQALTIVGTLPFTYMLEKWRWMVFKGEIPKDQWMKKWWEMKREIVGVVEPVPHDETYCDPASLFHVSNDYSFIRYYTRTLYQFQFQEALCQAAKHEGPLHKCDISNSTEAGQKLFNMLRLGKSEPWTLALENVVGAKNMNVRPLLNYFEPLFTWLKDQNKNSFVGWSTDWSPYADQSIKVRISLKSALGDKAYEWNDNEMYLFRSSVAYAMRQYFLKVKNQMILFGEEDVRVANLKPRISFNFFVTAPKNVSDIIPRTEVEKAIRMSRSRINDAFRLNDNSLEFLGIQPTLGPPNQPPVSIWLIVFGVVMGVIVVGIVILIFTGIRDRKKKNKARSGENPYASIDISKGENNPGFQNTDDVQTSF

[4] = test system: SARS-CoV-2; type: functional, organism-based; details: Severe acute respiratory syndrome coronavirus 2, NRC-03-nhCoV, Vero C1008
[5] = test system: SARS-CoV-2; type: functional, organism-based; details: Severe acute respiratory syndrome coronavirus 2, Huh-7
[6] = test system: SARS-CoV-2; test: microbe, parasite or virus in culture; details: Severe acute respiratory syndrome coronavirus 2, Huh-7
[7] = test system: SARS-CoV-2; test: microbe, parasite or virus in culture; details: Severe acute respiratory syndrome coronavirus 2, Vero C1008, 24 h
[8] = test system: SARS-CoV-2; test: Antiviral activity against VSV-S pseudotyped SARS-CoV-2 infected in human Calu-3 cells assessed as inhibition of viral growth; type: functional, organism-based; details: Severe acute respiratory syndrome coronavirus 2, Calu-3
[9] = test system: SARS-CoV-2; test: microbe, parasite or virus in culture; details: Severe acute respiratory syndrome coronavirus 2, B.1, VeroE6/TMPRSS2, 48 h
[10] = test system: SARS-CoV-2; test: microbe, parasite or virus in culture; details: Severe acute respiratory syndrome coronavirus 2, A549-ACE2
[11] = target: Procathepsin L (Homo sapiens, UniProt P07711); test: Inhibition of human Cathepsin L using Cbz-Phe-Arg-AMC as substrate measured for 10 mins by fluorescence based analysis
Procathepsin L, sequence (P07711 whole entry): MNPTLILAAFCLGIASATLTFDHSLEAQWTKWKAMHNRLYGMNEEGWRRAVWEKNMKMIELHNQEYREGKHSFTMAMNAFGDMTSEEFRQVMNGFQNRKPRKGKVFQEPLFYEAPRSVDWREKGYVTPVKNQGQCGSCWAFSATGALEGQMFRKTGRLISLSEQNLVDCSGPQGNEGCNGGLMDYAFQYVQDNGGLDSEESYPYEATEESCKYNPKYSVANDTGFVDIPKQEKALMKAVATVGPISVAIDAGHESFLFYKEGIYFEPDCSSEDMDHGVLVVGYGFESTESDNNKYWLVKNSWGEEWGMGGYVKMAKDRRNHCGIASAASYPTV

[12] = test system: SARS-CoV-2; type: functional, organism-based; details: Severe acute respiratory syndrome coronavirus 2, Vero C1008, 48 h
[13] = test system: SARS-CoV-2; test: Antiviral activity against SARS-CoV-2 WA1/2020 infected in human Calu-3 cells preincubated for 2 hrs followed by viral infection and measured after 48 hrs by microscopy analysis; type: functional, organism-based; details: Severe acute respiratory syndrome coronavirus 2, WA1/2020, Calu-3
[14] = test system: Dengue virus; type: functional, organism-based; details: Huh-7, 48 h
[15] = test system: Ebolavirus; test: Antiviral activity against Ebola virus infected in human HeLa cells assessed as reduction in viral cytopathic effect; type: functional, organism-based; details: Orthoebolavirus
[16] = target: T1, 1-phosphatidylinositol 3-phosphate 5-kinase (Homo sapiens, UniProt Q9Y2I7); test: Binding affinity to N-terminal His-tagged human PIKfyve expressed in Sf9 cells assessed as dissociation constant
T1 sequence (Q9Y2I7 whole entry): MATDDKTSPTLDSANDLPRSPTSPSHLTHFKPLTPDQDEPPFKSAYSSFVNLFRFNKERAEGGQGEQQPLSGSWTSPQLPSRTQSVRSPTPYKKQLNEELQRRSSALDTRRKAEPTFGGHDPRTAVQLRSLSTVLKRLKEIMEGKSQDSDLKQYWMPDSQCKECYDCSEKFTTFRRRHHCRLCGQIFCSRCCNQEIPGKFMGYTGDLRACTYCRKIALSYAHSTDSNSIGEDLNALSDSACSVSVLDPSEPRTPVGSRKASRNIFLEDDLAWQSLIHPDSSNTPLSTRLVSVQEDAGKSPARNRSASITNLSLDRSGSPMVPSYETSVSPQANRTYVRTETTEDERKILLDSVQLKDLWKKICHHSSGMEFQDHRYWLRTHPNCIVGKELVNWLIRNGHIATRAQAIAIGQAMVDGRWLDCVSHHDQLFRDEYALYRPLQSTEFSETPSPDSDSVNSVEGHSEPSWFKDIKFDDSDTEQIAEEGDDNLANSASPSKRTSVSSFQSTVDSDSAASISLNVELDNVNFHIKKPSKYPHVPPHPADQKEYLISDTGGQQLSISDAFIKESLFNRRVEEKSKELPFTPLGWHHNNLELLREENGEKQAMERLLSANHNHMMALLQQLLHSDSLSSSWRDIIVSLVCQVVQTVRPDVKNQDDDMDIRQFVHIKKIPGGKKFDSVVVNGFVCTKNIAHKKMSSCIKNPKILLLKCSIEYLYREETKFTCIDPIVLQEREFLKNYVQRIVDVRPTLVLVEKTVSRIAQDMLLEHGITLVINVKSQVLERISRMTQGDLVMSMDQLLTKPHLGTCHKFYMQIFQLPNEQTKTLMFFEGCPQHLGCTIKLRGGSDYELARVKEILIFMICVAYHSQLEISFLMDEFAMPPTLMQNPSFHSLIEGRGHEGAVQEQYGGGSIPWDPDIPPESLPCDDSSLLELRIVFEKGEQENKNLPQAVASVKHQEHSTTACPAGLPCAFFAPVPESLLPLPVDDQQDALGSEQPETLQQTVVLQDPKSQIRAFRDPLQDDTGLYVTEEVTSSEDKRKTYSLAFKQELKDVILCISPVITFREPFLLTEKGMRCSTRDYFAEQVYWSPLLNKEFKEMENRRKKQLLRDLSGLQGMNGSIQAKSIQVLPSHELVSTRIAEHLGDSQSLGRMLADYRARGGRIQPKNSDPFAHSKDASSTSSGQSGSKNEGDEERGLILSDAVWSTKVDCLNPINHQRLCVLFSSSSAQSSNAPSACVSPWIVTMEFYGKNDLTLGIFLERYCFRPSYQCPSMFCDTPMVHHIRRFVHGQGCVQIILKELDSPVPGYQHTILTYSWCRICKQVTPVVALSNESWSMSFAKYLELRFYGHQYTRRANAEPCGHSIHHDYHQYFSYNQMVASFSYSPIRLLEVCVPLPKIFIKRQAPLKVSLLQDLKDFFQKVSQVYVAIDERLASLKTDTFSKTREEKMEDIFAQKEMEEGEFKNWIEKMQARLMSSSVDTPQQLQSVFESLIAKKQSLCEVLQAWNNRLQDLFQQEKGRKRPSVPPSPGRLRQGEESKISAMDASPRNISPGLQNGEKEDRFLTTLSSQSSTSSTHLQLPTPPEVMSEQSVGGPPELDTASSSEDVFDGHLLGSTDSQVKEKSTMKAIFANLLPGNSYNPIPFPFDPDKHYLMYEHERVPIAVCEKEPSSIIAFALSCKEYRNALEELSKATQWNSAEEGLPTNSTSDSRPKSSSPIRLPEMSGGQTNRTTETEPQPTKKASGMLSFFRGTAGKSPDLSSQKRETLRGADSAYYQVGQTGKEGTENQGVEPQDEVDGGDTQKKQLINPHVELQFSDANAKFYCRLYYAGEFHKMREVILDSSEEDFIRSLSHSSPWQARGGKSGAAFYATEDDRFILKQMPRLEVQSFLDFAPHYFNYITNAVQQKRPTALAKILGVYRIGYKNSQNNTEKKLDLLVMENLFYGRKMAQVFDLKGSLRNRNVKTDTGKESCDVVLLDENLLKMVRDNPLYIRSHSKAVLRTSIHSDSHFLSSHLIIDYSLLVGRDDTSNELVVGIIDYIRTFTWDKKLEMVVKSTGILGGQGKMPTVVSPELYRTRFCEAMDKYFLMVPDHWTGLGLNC

[17] = test system: SARS-CoV-2; type: functional, organism-based; details: Severe acute respiratory syndrome coronavirus 2, Vero C1008, 72 h
[18] = test system: SARS-CoV-2; type: functional, organism-based; details: Severe acute respiratory syndrome coronavirus 2, NRC-03-nhCoV, Vero C1008, 72 h
[19] = target: T1, 1-phosphatidylinositol 3-phosphate 5-kinase; test: Inhibition of PIKfyve (unknown origin)
[20] = test system: SARS-CoV-2; type: functional, organism-based; details: Severe acute respiratory syndrome coronavirus 2, Vero C1008, 48 h; remark: listed apart in the source
[21] = target: Replicase polyprotein 1ab (Severe acute respiratory syndrome coronavirus 2, UniProt P0DTD1); test: Inhibition of SARS-CoV-2 MPro expressed in Escherichia coli BL21 (DE3) using Dabcyl-KTSAVLQSGFRKME-Edans as substrate incubated for 1 hr by fluorescence based analysis

CC(C)CCC[C@@H](C)[C@H]1CC[C@H]2[C@@H]3CC[C@H]4C[C@@H](O[C@@H]5O[C@H](COS(=O)(=O)[O-])[C@@H](O[C@H]6O[C@H](COS(=O)(=O)[O-])[C@@H](O[C@H]7O[C@H](COS(=O)(=O)[O-])[C@@H](O[C@H]8O[C@H](COS(=O)(=O)[O-])[C@@H](OS(=O)(=O)[O-])[C@H](OS(=O)(=O)[O-])[C@H]8OS(=O)(=O)[O-])[C@H](OS(=O)(=O)[O-])[C@H]7OS(=O)(=O)[O-])[C@H](OS(=O)(=O)[O-])[C@H]6OS(=O)(=O)[O-])[C@H](OS(=O)(=O)[O-])[C@H]5OS(=O)(=O)[O-])CC[C@]4(C)[C@H]3CC[C@]12C.[Na+].[Na+].[Na+].[Na+].[Na+].[Na+].[Na+].[Na+].[Na+].[Na+].[Na+].[Na+].[Na+]
EC50 [1]: 0.9 µg/mL | IC50 [2]: 9.9 µg/mL | IC50 [3]: 4270 nM

CCC[C@H](NC(=O)[C@@H]1[C@H]2CCC[C@H]2CN1C(=O)[C@@H](NC(=O)[C@@H](NC(=O)c1cnccn1)C1CCCCC1)C(C)(C)C)C(=O)C(=O)NC1CC1
IC50 [4]: 11600 nM

C[C@H](NC(=O)[C@H](Cc1ccccc1)NC(=O)OCc1ccccc1)C(=O)CF
EC50 [5]: 9610 nM | EC50 [6]: 701000 nM

CC(C)(C)OC(=O)N[C@@H](Cc1c[nH]c2ccccc12)C(=O)NNC(=O)OCC(=O)N1CCCc2ccccc21
EC50 [7]: 10900 nM

CC(=O)N[C@@H](CO)C(=O)N[C@@H](CCCCN)C(=O)N[C@@H](CC(C)C)C(=O)N[C@@H](CCCNC(=N)N)C(=O)c1nc2ccccc2s1
EC50 [8]: 4270 nM

CCCCCCCCCC(=O)N[C@@H](Cc1c[nH]c2ccccc12)C(=O)N[C@H](CC(N)=O)C(=O)N[C@@H](CC(=O)O)C(=O)N[C@@H]1C(=O)NCC(=O)N[C@@H](CCCN)C(=O)N[C@@H](CC(=O)O)C(=O)N[C@H](C)C(=O)N[C@@H](CC(=O)O)C(=O)NCC(=O)N[C@H](CO)C(=O)N[C@@H]([C@H](C)CC(=O)O)C(=O)N[C@@H](CC(=O)c2ccccc2N)C(=O)O[C@@H]1C
EC50 [9]: 226000 nM | EC50 [10]: 98800 nM | IC50 [11]: 7870 nM | EC50 [6]: 207000 nM

CC(=O)N[C@H]1CC(=O)NCCCC[C@@H](C(=O)N[C@@H](CCCNC(=N)N)C(=O)c2nc3ccccc3s2)NC(=O)[C@H](CC(C)C)NC1=O
EC50 [12]: 104 nM | IC50 [13]: 660 nM | EC50 [8]: 197 nM

N#Cc1ccc(-c2cnc3[nH]cc(NC(=O)c4cccnc4)c3c2)cc1
EC50 [14]: 8000 nM | EC50 [15]: > 10000 nM

Ic1cccc(/C=N/Nc2nc(N3CCOCC3)nc(N(c3ccccc3)c3ccccc3)n2)c1
Kd [16]: 32 nM

COc1ccc(C(=O)Nc2cccc(C(F)(F)F)c2)cc1Nc1nc(-c2cccnc2)c2[nH]ccc2n1
EC50 [17]: 9.3 nM

COc1ccccc1/C=N/NC(=N)c1nonc1NCNc1nonc1C(=N)N/N=C/c1ccccc1OC
IC50 [18]: 19 nM

CN(C)Cc1ccc2[nH]c3c(c2c1)Cc1nc(N)ncc1CC3
IC50 [19]: 6.9 nM | IC50 [20]: 19.5 nM

CS(=O)(=O)N[C@@H](CCC(N)=O)C(=O)N[C@@H](Cc1ccccc1)C(=O)N[C@@H](CCCNC(=N)N)C(=O)c1nc2ccccc2s1
EC50 [8]: 2.8 nM

CC(=O)N[C@@H](CC(C)C)C(=O)N[C@@H](CC(C)C)C(=O)N[C@H](C=O)CCCNC(=N)N
EC50 [5]: 10600 nM | EC50 [6]: 39300 nM | IC50 [21]: 127000 nM

C1=Nc2ccccc2/C1=C\NNc1nc(Nc2ccccc2)nc(N2CCOCC2)n1
Kd [16]: 0.91 nM

O=C(N[C@H](/C=C/S(=O)(=O)c1ccccc1)CCc1ccccc1)[C@H](Cc1ccccc1)NC(=O)N1CCNCC1
EC50 [7]: 35 nM

CC(=O)N[C@@H](CCC(N)=O)C(=O)N[C@@H](Cc1ccccc1)C(=O)N[C@@H](CCCNC(=N)N)C(=O)c1nc2ccccc2s1
IC50 [13]: 52 nM | EC50 [8]: 0.53 nM

CC(=O)NCC(=O)N[C@@H](CCC(N)=O)C(=O)N[C@@H](Cc1ccccc1)C(=O)N[C@@H](CCCNC(=N)N)C(=O)c1nc2ccccc2s1
IC50 [13]: 74 nM | EC50 [8]: 0.43 nM

CCC(O)(CC)c1ccc2[nH]c3c(c2c1)Cc1nc(N)ncc1CC3
IC50 [19]: 1.8 nM | IC50 [20]: 23.9 nM
